Data on one compound can be found in US6784137B2, “6-aryl-4-aminopicolinates and their use as herbicides” (Dow AgroSciences LLC, priority 2001, dated 2004).

By melting point is commonly meant the temperature of the solid-liquid transition.

The subject of data set [1] is Crabgrass(large) (Digitaria sanguinalis). In words: Preemergence herbicidal activity, soil spray. Conditions: Digitaria sanguinalis, pre-emergence, 504 h; Table 5; rate 560 ppm; visual score after 3 weeks; read-out: Pre-emergent % control DIGSA. In kind it is in vivo. The method, boiled down: (§1)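 Seeds were sown in a 70:30 loam–sand mix (pH about 8.1, about 1.5% organic matter), and test compound from acetone:DMSO 97:3 stocks, diluted in 99.9:0.1 water:Tween 155, was sprayed evenly on the soil surface before emergence. Pots were held in a greenhouse under an approximate 15 hr photoperiod with top-irrigation.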

For data set [2], the system named is Lambsquarter (Chenopodium album). Nature of the data set: Preemergence herbicidal activity, soil spray. In kind it is in vivo. The settings on record: Chenopodium album, pre-emergence, 504 h; Table 5; rate 560 ppm; visual score after 3 weeks, 100 complete kill or no germination; read-out: Pre-emergent % control CHEAL. In a few lines: as §1
Data set [3] has as its system Pigweed (redroot) (Amaranthus retroflexus). Nature of the data set: Preemergence herbicidal activity, soil spray. It counts as in vivo. The settings on record: Amaranthus retroflexus, pre-emergence, 504 h; Table 5; rate 560 ppm; visual score after 3 weeks; read-out: Pre-emergent % control AMARE. The method, boiled down:
as §1

Data set [4] concerns Giant Foxtail (Setaria faberi). In words: Preemergence herbicidal activity, soil spray. In kind it is in vivo. The settings on record: Setaria faberi, pre-emergence, 504 h, Table 5; rate 560 ppm; visual score after 3 weeks; read-out: Pre-emergent % control SETFA. The method, boiled down:
as §1

In data set [5] the test system is Lambsquarter (Chenopodium album). Nature of the data set: Postemergence herbicidal activity, greenhouse spray. Conditions: Chenopodium album, post-emergence, 336 h; Table 1; rate 500 ppm; visual score after 2 weeks; read-out: Post-emergent % control CHEAL. It counts as in vivo. In a few lines:
(§2)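 Foliar spray at 1st-2nd true leaf; carrier: acetone/water/IPA/DMSO/crop oil concentrate/Triton X-155 (48.5:39:10:1.5:1.0:0.02). Serial dilutions from acetone:DMSO stock. Greenhouse ~15 h light, 23-29° C day. Sub-irrigated post-treatment. Carrier-sprayed controls.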

Data set [6] deals with Pigweed (redroot) (Amaranthus retroflexus). Described as above. It counts as in vivo. The settings on record: visual score after 2 weeks. In a few lines: as §2
For data set [7], the system named is Yellow nutsedge (Cyperus esculentus). The description is as above. It counts as in vivo. The settings on record: Cyperus, post-emergence, 336 h, Table 1; rate 500 ppm; visual score after 2 weeks; read-out: Post-emergent % control CYPES. In a few lines: as §2
Data set [8] has as its system Barnyardgrass (Echinochloa crus-galli). The data set is described as above. In kind it is in vivo. The settings on record: Echinochloa crus-galli, post-emergence, 336 h, Table 1; rate 500 ppm; visual score after 2 weeks; read-out: Post-emergent % control ECHCG. The method, boiled down:
as §2

Data set [9] deals with Cocklebur (Xanthium strumarium). Described as above. The settings on record: Xanthium strumarium, post-emergence, 336 h; Table 1; rate 500 ppm; visual score after 2 weeks, 0 no injury, 100 complete kill; read-out: Post-emergent % control XANST. It counts as in vivo. In a few lines: as §2
Data set [10] deals with Wheat(var. Merica) (Triticum aestivum). In words: Postemergence herbicidal activity, selectivity to wheat. It counts as in vivo. The settings on record: post-emergence, 336 h, Table 3, rate 62.5 (unit inferred), crop injury, read-out: Post-emergent % control TRZAS. The protocol:
(§3) Seeds of the desired test plant species were planted in Grace-Sierra MetroMix® 306 planting mixture, which typically has a pH of 6.0 to 6.8 and an organic matter content of about 30 percent, in plastic pots with a surface area of 64 square centimeters. When required to ensure good germination and healthy plants, a fungicide treatment and/or other chemical or physical treatment was applied. The plants were grown for 7-21 days in a greenhouse with an approximate 15 hr photoperiod which was maintained at about 23-29° C. during the day and 22-28° C. during the night. Nutrients and water were added on a regular basis and supplemental lighting was provided with overhead metal halide 1000-Watt lamps as necessary. The plants were employed for testing when they reached the first or second true leaf stage. A weighed amount, determined by the highest rate to be tested, of each test compound was placed in a 20 mL glass vial and was dissolved in 4 mL of a 97:3 v/v (volume/volume) mixture of acetone and dimethyl sulfoxide (DMSO) to obtain concentrated stock solutions. […] The concentrated stock solutions obtained were diluted with an aqueous mixture containing acetone, water, isopropyl alcohol, DMSO, At plus 411 F crop oil concentrate, and Triton X-155 surfactant in a 48.5:39:10:1.5:1.0:0.02 v/v ratio to obtain spray solutions of known concentration. The solutions containing the highest concentration to be tested were prepared by diluting 2 mL aliquots of the stock solution with 13 mL of the mixture and lower concentrations were prepared by serial dilution of the stock solution. Approximately 1.5 mL aliquots of each solution of known concentration were sprayed evenly onto each of the test plant pots using a DeVilbiss atomizer driven by compressed air pressure of […] (140 to 280 kiloPascals) to obtain thorough coverage of each plant. Control plants were sprayed in the same manner with the aqueous mixture. In this test an application rate of 1 ppm results in the application of approximately 1 g/Ha. The treated plants and control plants were placed in a greenhouse as described above and watered by sub-irrigation to prevent wash-off of the test compounds. After 2 weeks the condition of the test plants as compared with that of the untreated plants was determined visually and scored on a scale of 0 to 100 percent where 0 corresponds to no injury and 100 corresponds to complete kill.

For data set [11], the system named is Corn (#14 3377) (Zea mays). In words: Postemergence herbicidal activity, selectivity to corn. The settings on record: post-emergence, 336 h, Table 4, rate 62.5 (unit inferred), crop injury, read-out: Post-emergent % control ZEAMX. It counts as in vivo. The protocol: as §3

`COC(=O)c1nc(-c2ccc(F)cc2)cc(N)c1Cl` [Compound 43, Methyl 4-amino-3-chloro-6-(4-fluorophenyl)pyridine-2-carboxylate] displayed a melting point of 125 °C. Also, the pest or weed control at 560 ppm in data set [1] was 100%. Moreover, the pest or weed control at 560 ppm in data set [2] is 100%. Moreover, the pest or weed control at 560 ppm in [3] amounted to 100%. Moreover, the pest or weed control at 560 ppm in data set [4] is 98%. For the same compound, the pest or weed control at 500 ppm in data set [5] worked out at 100%. Moreover, the pest or weed control at 62.5 µg/mL in [6] (Amaranthus retroflexus, post-emergence, 336 h, Table 3, rate 62.5 (unit inferred), read-out: Post-emergent % control AMARE) was found to be 100%. In [6] (Table 4, rate 62.5 (unit not given)), the “Post-emergent % control AMARE” value was determined as 100%. Also, the pest or weed control at 500 ppm in data set [7] was 100%. In data set [8], the pest or weed control at 500 ppm stood at 95%. Further, in data set [9], the pest or weed control at 500 ppm worked out at 100%. Moreover, the pest or weed control at 62.5 µg/mL in data set [10] was 10%. Also, in [11], the pest or weed control at 62.5 µg/mL was 0%.
